Key:
hCA II = hCA II (Homo sapiens, UniProt P00918); assay: stopped-flow CO2 hydrase assay
Description: (§3) An Applied Photophysics stopped-flow instrument was used for assaying the CA catalysed CO2 hydration activity, as reported earlier [17]. The inhibition constants were obtained by non-linear least-squares methods using PRISM 3 and the Cheng-Prusoff equation as reported earlier, and represent the mean from at least three different determinations. The four tested CA isofoms were recombinant ones obtained in-house as reported earlier [26, 27, 28, 29].

RPMI-8226 = assay: NCI one-dose SRB assay; format: cell-based; conditions: Homo sapiens, RPMI-8226 (Leukemia), 1.00E-5 Molar, read-out: Growth Percent
Description: (§1) First, all diamide-based benzenesulfonamides herein reported 5a–h were screened for their antitumor activity at one dose (10^−5 M) assay against a panel of sixty cancer cell lines through the National Cancer Institute (NCI) Developmental Therapeutic Program (www.dtp.nci.nih.gov), according to US-NCI protocol. The cell growth and cell viability were evaluated using the sulforhodamine B (SRB) colorimetric assay.
(§2) This assay was carried out according to the protocol of the Drug Evaluation Branch, NCI, Bethesda. The cell growth and cell viability were evaluated using the sulforhodamine B (SRB) colorimetric assay, as reported earlier.

DU-145 = assay: NCI one-dose SRB assay; format: cell-based; conditions: Homo sapiens, DU-145 (Prostate Cancer), 1.00E-5 Molar, read-out: Growth Percent
Description: as §1, §2

MCF7 = assay: NCI one-dose SRB assay; format: cell-based; conditions: Homo sapiens, MCF7 (Breast Cancer), 1.00E-5 Molar, read-out: Growth Percent
Description: as §1, §2

SN12C = assay: NCI one-dose SRB assay; format: cell-based; conditions: Homo sapiens, SN12C (Renal Cancer), 1.00E-5 Molar, read-out: Growth Percent
Description: as §1, §2

786-0 = assay: NCI one-dose SRB assay; format: cell-based; conditions: Homo sapiens, 786-0 (Renal Cancer), 1.00E-5 Molar, read-out: Growth Percent
Description: as §1, §2

SF-268 = assay: NCI one-dose SRB assay; format: cell-based; conditions: Homo sapiens, SF-268 (CNS Cancer), 1.00E-5 Molar, read-out: Growth Percent
Description: as §1, §2

NCI-H23 = assay: NCI one-dose SRB assay; format: cell-based; conditions: Homo sapiens, NCI-H23 (Non-Small Cell Lung Cancer), 1.00E-5 Molar, read-out: Growth Percent
Description: as §1, §2

HCT-116 = assay: NCI one-dose SRB assay; format: cell-based; conditions: Homo sapiens, HCT-116 (Colon Cancer), 1.00E-5 Molar, read-out: Growth Percent
Description: as §1, §2

KM12 = assay: NCI one-dose SRB assay; format: cell-based; conditions: Homo sapiens, KM12 (Colon Cancer), 1.00E-5 Molar, read-out: Growth Percent
Description: as §1, §2

NCI-H460 = assay: NCI one-dose SRB assay; format: cell-based; conditions: Homo sapiens, NCI-H460 (Non-Small Cell Lung Cancer), 1.00E-5 Molar, read-out: Growth Percent
Description: as §1, §2

OVCAR-3 = assay: NCI one-dose SRB assay; format: cell-based; conditions: Homo sapiens, OVCAR-3 (Ovarian Cancer), 1.00E-5 Molar, read-out: Growth Percent
Description: as §1, §2

SK-MEL-28 = assay: NCI one-dose SRB assay; format: cell-based; conditions: Homo sapiens, SK-MEL-28 (Melanoma), 1.00E-5 Molar, read-out: Growth Percent
Description: as §1, §2

A498 = assay: NCI one-dose SRB assay; format: cell-based; conditions: Homo sapiens, A498 (Renal Cancer), 1.00E-5 Molar, read-out: Growth Percent
Description: as §1, §2

EKVX = assay: NCI one-dose SRB assay; format: cell-based; conditions: Homo sapiens, EKVX (Non-Small Cell Lung Cancer), 1.00E-5 Molar, read-out: Growth Percent
Description: as §1, §2

SF-295 = assay: NCI one-dose SRB assay; format: cell-based; conditions: Homo sapiens, SF-295 (CNS Cancer), 1.00E-5 Molar, read-out: Growth Percent
Description: as §1, §2

HOP-92 = assay: NCI one-dose SRB assay; format: cell-based; conditions: Homo sapiens, HOP-92 (Non-Small Cell Lung Cancer), 1.00E-5 Molar, read-out: Growth Percent
Description: as §1, §2

LOX IMVI = assay: NCI one-dose SRB assay; format: cell-based; conditions: Homo sapiens, LOX IMVI (Melanoma), 1.00E-5 Molar, read-out: Growth Percent
Description: as §1, §2

MALME-3M = assay: NCI one-dose SRB assay; format: cell-based; conditions: Homo sapiens, MALME-3M (Melanoma), 1.00E-5 Molar, read-out: Growth Percent
Description: as §1, §2

SK-MEL-5 = assay: NCI one-dose SRB assay; format: cell-based; conditions: Homo sapiens, SK-MEL-5 (Melanoma), 1.00E-5 Molar, read-out: Growth Percent
Description: as §1, §2

OVCAR-5 = assay: NCI one-dose SRB assay; format: cell-based; conditions: Homo sapiens, OVCAR-5 (Ovarian Cancer), 1.00E-5 Molar, read-out: Growth Percent
Description: as §1, §2

MDA-MB-468 = assay: NCI one-dose SRB assay; format: cell-based; conditions: Homo sapiens, MDA-MB-468 (Breast Cancer), 1.00E-5 Molar, read-out: Growth Percent
Description: as §1, §2

UACC-62 = assay: NCI one-dose SRB assay; format: cell-based; conditions: Homo sapiens, UACC-62 (Melanoma), 1.00E-5 Molar, read-out: Growth Percent
Description: as §1, §2

OVCAR-8 = assay: NCI one-dose SRB assay; format: cell-based; conditions: Homo sapiens, OVCAR-8 (Ovarian Cancer), 1.00E-5 Molar, read-out: Growth Percent
Description: as §1, §2

OVCAR-4 = assay: NCI one-dose SRB assay; format: cell-based; conditions: Homo sapiens, OVCAR-4 (Ovarian Cancer), 1.00E-5 Molar, read-out: Growth Percent
Description: as §1, §2

SNB-75 = assay: NCI one-dose SRB assay; format: cell-based; conditions: Homo sapiens, SNB-75 (CNS Cancer), 1.00E-5 Molar, read-out: Growth Percent
Description: as §1, §2

SF-539 = assay: NCI one-dose SRB assay; format: cell-based; conditions: Homo sapiens, SF-539 (CNS Cancer), 1.00E-5 Molar, read-out: Growth Percent
Description: as §1, §2

IGROV1 = assay: NCI one-dose SRB assay; format: cell-based; conditions: Homo sapiens, IGROV-1, IGROV1 (Ovarian Cancer), 1.00E-5 Molar, read-out: Growth Percent
Description: as §1, §2

hCA I = hCA I (Homo sapiens, UniProt P00915); assay: stopped-flow CO2 hydrase assay
Chain of hCA I (P00915 whole entry): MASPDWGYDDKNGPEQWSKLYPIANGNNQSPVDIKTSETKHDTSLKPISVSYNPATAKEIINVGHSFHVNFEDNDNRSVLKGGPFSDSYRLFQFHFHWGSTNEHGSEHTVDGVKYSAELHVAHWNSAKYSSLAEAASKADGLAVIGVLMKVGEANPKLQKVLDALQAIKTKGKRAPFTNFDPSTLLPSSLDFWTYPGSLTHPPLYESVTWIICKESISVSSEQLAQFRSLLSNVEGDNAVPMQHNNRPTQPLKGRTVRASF
Description: as §3

hCA IX = hCA IX (Homo sapiens, UniProt Q16790); assay: stopped-flow CO2 hydrase assay; conditions: for Selectivity ratio I/IX: KI hCA I / KI hCA IX; for Selectivity ratio II/IX: KI hCA II / KI hCA IX
Description: as §3

hCA XII = hCA XII (Homo sapiens, UniProt O43570); assay: stopped-flow CO2 hydrase assay; conditions: for Selectivity ratio I/XII: KI hCA I / KI hCA XII; for Selectivity ratio II/XII: KI hCA II / KI hCA XII
Chain of hCA XII (O43570 25-354): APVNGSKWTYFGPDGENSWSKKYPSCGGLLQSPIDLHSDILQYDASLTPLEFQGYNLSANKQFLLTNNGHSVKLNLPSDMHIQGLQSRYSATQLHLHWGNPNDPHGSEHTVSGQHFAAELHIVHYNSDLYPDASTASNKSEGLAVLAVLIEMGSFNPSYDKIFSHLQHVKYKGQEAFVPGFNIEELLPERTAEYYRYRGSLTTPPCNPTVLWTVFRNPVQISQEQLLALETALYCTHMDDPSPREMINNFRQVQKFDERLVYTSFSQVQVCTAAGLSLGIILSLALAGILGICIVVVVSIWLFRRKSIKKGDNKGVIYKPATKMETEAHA
Description: as §3

Row | Structure (SMILES) | Ki (hCA II) [nM] | activity at 10 µM (RPMI-8226) [%] | activity at 10 µM (DU-145) [%] | activity at 10 µM (MCF7) [%] | activity at 10 µM (SN12C) [%] | activity at 10 µM (786-0) [%] | activity at 10 µM (SF-268) [%] | activity at 10 µM (NCI-H23) [%] | activity at 10 µM (HCT-116) [%] | activity at 10 µM (KM12) [%] | activity at 10 µM (NCI-H460) [%] | activity at 10 µM (OVCAR-3) [%] | activity at 10 µM (SK-MEL-28) [%] | activity at 10 µM (A498) [%] | activity at 10 µM (EKVX) [%] | activity at 10 µM (SF-295) [%] | activity at 10 µM (HOP-92) [%] | activity at 10 µM (LOX IMVI) [%] | activity at 10 µM (MALME-3M) [%] | activity at 10 µM (SK-MEL-5) [%] | further results
1 | NS(=O)(=O)c1ccc(NC(=O)C(=Cc2ccc(Cl)cc2)NC(=O)c2ccccc2)cc1 [Compound 5a, N-(1-(4-Chlorophenyl)-3-oxo-3-((4-sulfamoylphenyl)amino)prop-1-en-2-yl)benzamide] | 68.3 | 109 | 107 | 98.3 | 104 | 95.9 | 96 | 103 | 93.9 | 108 | 106 | 104 | 110 | 104 | 99.5 | 104 | 98.8 | 97 | 96.3 | 100 | activity at 10 µM (OVCAR-5): 105%; activity at 10 µM (MDA-MB-468): 101%; activity at 10 µM (UACC-62): 96.2%; activity at 10 µM (OVCAR-8): 97.6%; activity at 10 µM (OVCAR-4): 95.5%; activity at 10 µM (SNB-75): 86.3%; activity at 10 µM (SF-539): 98.8%; activity at 10 µM (IGROV1): 90.9%; Ki (hCA I): 3.96 µM; Ki (hCA IX): 8.8 nM; Selectivity ratio I/IX (hCA IX): 449.5; Selectivity ratio II/IX (hCA IX): 7.8; Ki (hCA XII): 16.1 nM; Selectivity ratio I/XII (hCA XII): 245.7; Selectivity ratio II/XII (hCA XII): 4.2
2 | NS(=O)(=O)c1ccc(NC(=O)C(=Cc2ccc(Cl)cc2Cl)NC(=O)c2ccccc2)cc1 [Compound 5b, N-(1-(2,4-Dichlorophenyl)-3-oxo-3-((4-sulfamoylphenyl)amino)prop-1-en-2-yl)benzamide] | 224 | 92.2 | 109 | 90.1 | 94.7 | 104 | 94.5 | 107 | 97.3 | 102 | 105 | 113 | 110 | 95 | 99.6 | 104 | 87 | 96.2 | 93.2 | 90.2 | activity at 10 µM (OVCAR-5): 108%; activity at 10 µM (MDA-MB-468): 110%; activity at 10 µM (UACC-62): 75%; activity at 10 µM (OVCAR-8): 101%; activity at 10 µM (OVCAR-4): 97.7%; activity at 10 µM (SNB-75): 81.4%; activity at 10 µM (SF-539): 95.7%; activity at 10 µM (IGROV1): 74.9%; Ki (hCA I): 5.98 µM; Ki (hCA IX): 18.3 nM; Selectivity ratio I/IX (hCA IX): 326.6; Selectivity ratio II/IX (hCA IX): 12.2; Ki (hCA XII): 10.5 nM; Selectivity ratio I/XII (hCA XII): 569.2; Selectivity ratio II/XII (hCA XII): 21.3
3 | NS(=O)(=O)c1ccc(NC(=O)C(=Cc2ccc(Br)cc2)NC(=O)c2ccccc2)cc1 [Compound 5c, N-(1-(4-Bromophenyl)-3-oxo-3-((4-sulfamoylphenyl)amino)prop-1-en-2-yl)benzamide] | 252 | 97.2 | 108 | 98.1 | 99.4 | 96 | 99.6 | 100 | 92 | 102 | 107 | 103 | 113 | 94.5 | 102 | 99.2 | 94 | 99.7 | 92.2 | 93.1 | activity at 10 µM (OVCAR-5): 99.8%; activity at 10 µM (MDA-MB-468): 99.9%; activity at 10 µM (UACC-62): 88.1%; activity at 10 µM (OVCAR-8): 102%; activity at 10 µM (OVCAR-4): 93.7%; activity at 10 µM (SNB-75): 86.5%; activity at 10 µM (SF-539): 92.8%; activity at 10 µM (IGROV1): 90.2%; Ki (hCA I): 2.4 µM; Ki (hCA IX): 33.5 nM; Selectivity ratio I/IX (hCA IX): 71.6; Selectivity ratio II/IX (hCA IX): 7.5; Ki (hCA XII): 55.4 nM; Selectivity ratio I/XII (hCA XII): 43.3; Selectivity ratio II/XII (hCA XII): 4.5

From paper PMC6566410, “Novel Diamide-Based Benzenesulfonamides as Selective Carbonic Anhydrase IX Inhibitors Endowed with Antitumor Activity: Synthesis, Biological Evaluation and In Silico Insights” (International Journal of Molecular Sciences, 2019)
